Measured values: PubChem BioAssay AID248 (DTP/NCI, 2004)
Several values for one entry are separate records, joined by “and”; a condition that tells them apart may be missing. Equal entries are not always repeated. Inconclusive results and toxic doses are left out. Rule as the data show it: active = T/C of 150% or more; inactive = T/C below 125%.

Tested on: L1210 leukemia ip in BDF1 mice, survival T/C
Assay: NCI In Vivo Anticancer Drug Screen. Data for tumor model L1210 Leukemia (intraperitoneal) in B6D2F1 (BDF1) mice
Details: endpoint: mean survival time, higher = longer survival
Summary of the method: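 Transplanted-tumor mice were given test agent; controls received vehicle only. Survival readings from the two groups were divided (treated over control).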

[1] = dose: 100.0 mg/kg/injection, schedule: Q04DX002 (ip), vehicle: Klucel (hydroxypropylcellulose) (HPC)
[2] = dose: 200.0 mg/kg/injection, schedule: Q04DX002 (ip), vehicle: Klucel (hydroxypropylcellulose) (HPC)
[3] = dose: 400.0 mg/kg/injection, schedule: Q04DX002 (ip), vehicle: Klucel (hydroxypropylcellulose) (HPC)
[4] = dose: 100.0 mg/kg/injection, schedule: Q01DX001 (ip), vehicle: saline
[5] = dose: 200.0 mg/kg/injection, schedule: Q01DX001 (ip), vehicle: saline
[6] = dose: 400.0 mg/kg/injection, schedule: Q01DX001 (ip), vehicle: saline
[7] = dose: 50.0 mg/kg/injection, schedule: Q01DX009 (ip), vehicle: saline with Tween-80
[8] = dose: 100.0 mg/kg/injection, schedule: Q01DX009 (ip), vehicle: saline with Tween-80
[9] = dose: 200.0 mg/kg/injection, schedule: Q01DX009 (ip), vehicle: saline with Tween-80
[10] = dose: 100.0 mg/kg/injection, schedule: Q04DX003 (ip), vehicle: saline with Tween-80
[11] = dose: 200.0 mg/kg/injection, schedule: Q04DX003 (ip), vehicle: saline with Tween-80
[12] = dose: 400.0 mg/kg/injection, schedule: Q04DX003 (ip), vehicle: saline with Tween-80
[13] = dose: 100.0 mg/kg/injection, schedule: Q04DX003 (ip), vehicle: Klucel (hydroxypropylcellulose) (HPC)
[14] = dose: 200.0 mg/kg/injection, schedule: Q04DX003 (ip), vehicle: Klucel (hydroxypropylcellulose) (HPC)
[15] = dose: 400.0 mg/kg/injection, schedule: Q04DX003 (ip), vehicle: Klucel (hydroxypropylcellulose) (HPC)
[16] = dose: 100.0 mg/kg/injection, schedule: Q04DX002 (ip), vehicle: saline with Tween-80
[17] = dose: 200.0 mg/kg/injection, schedule: Q04DX002 (ip), vehicle: saline with Tween-80

Measured: T/C

N/C(=N\N=C\c1cccc2ccccc12)N/N=C/c1cccc2ccccc12
inactive: dose: 15.0 mg/kg/injection, schedule: Q01DX Z (ip), vehicle: methylcellulose (MC) 101 % of control | dose: 30.0 mg/kg/injection, schedule: Q01DX Z (ip), vehicle: methylcellulose (MC) 89 % of control | dose: 60.0 mg/kg/injection, schedule: Q01DX Z (ip), vehicle: methylcellulose (MC) 102 % of control | dose: 60.0 mg/kg/injection, schedule: Q01DX Z (oral), vehicle: methylcellulose (MC) 87 % of control | dose: 120.0 mg/kg/injection, schedule: Q01DX Z (ip), vehicle: methylcellulose (MC) 97 % of control | dose: 120.0 mg/kg/injection, schedule: Q01DX Z (oral), vehicle: methylcellulose (MC) 110 % of control | dose: 180.0 mg/kg/injection, schedule: Q01DX Z (oral), vehicle: methylcellulose (MC) 101 % of control | dose: 240.0 mg/kg/injection, schedule: Q01DX Z (ip), vehicle: methylcellulose (MC) 97 % of control | dose: 240.0 mg/kg/injection, schedule: Q01DX Z (oral), vehicle: methylcellulose (MC) 102 % of control | dose: 360.0 mg/kg/injection, schedule: Q01DX Z (ip), vehicle: methylcellulose (MC) 91 % of control | dose: 360.0 mg/kg/injection, schedule: Q01DX Z (oral), vehicle: methylcellulose (MC) 96 % of control | dose: 480.0 mg/kg/injection, schedule: Q01DX Z (oral), vehicle: methylcellulose (MC) 93 % of control | dose: 540.0 mg/kg/injection, schedule: Q01DX Z (oral), vehicle: methylcellulose (MC) 96 % of control

Cc1cc(OCC#CCN(C)c2ccccc2)ccc1Cl
inactive: [1] 89 % of control | [2] 99 % of control | [3] 96 % of control

Cc1ccc(NC(=O)/C=N/O)cc1C
inactive: [4] 104 % of control | [5] 102 % of control | [6] 90 % of control

O=C(N/N=C\c1ccc(/C=N\NC(=O)c2ccc(O)cc2)cc1)c1ccc(O)cc1
inactive: [7] 112 % of control | [8] 94 % of control | [9] 105 % of control

C(=C\SCc1ccccc1)/SCc1ccccc1
inactive: [1] 103 % of control | [10] 97 % of control | [2] 103 % of control | [11] 101 % of control | [3] 96 % of control | [12] 102 % of control

O=C(N=C(c1ccccc1)c1ccccc1)c1ccccc1
inactive: [10] 90 % of control | [11] 90 % of control | [12] 88 % of control

CC1(C)C2CCC1(C)C(COC(=O)c1cc([N+](=O)[O-])cc([N+](=O)[O-])c1)C2 (configuration not stated)
inactive: dose: 100.0 mg/kg/injection, schedule: Q01DX009 (ip), vehicle: Klucel (hydroxypropylcellulose) (HPC) 100 % of control | [13] 104 % of control | dose: 200.0 mg/kg/injection, schedule: Q01DX009 (ip), vehicle: Klucel (hydroxypropylcellulose) (HPC) 92 % of control | [14] 100 % of control | dose: 400.0 mg/kg/injection, schedule: Q01DX009 (ip), vehicle: Klucel (hydroxypropylcellulose) (HPC) 89 % of control | [15] 102 % of control

Cc1cc(Br)nc2ccccc12
inactive: [4] 92 % of control | [5] 89 % of control | [6] 97 % of control

O=C(COC(=O)c1ccccc1O)c1ccc(-c2ccccc2)cc1
inactive: [4] 94 % of control | [5] 88 % of control | [6] 88 % of control

CCOC(C[N+](C)(C)CCC[N+](C)(C)CC(OCC)OCC)OCC
inactive: [4] 111 % of control | [5] 96 % of control | [6] 111 % of control

O=C(O)C#Cc1ccccc1
inactive: dose: 25.0 mg/kg/injection, schedule: Q04DX003 (ip), vehicle: Klucel (hydroxypropylcellulose) (HPC) 107 % of control | dose: 50.0 mg/kg/injection, schedule: Q04DX003 (ip), vehicle: Klucel (hydroxypropylcellulose) (HPC) 98 % of control | [4] 100 % of control | [13] 96 % of control

CCCCCCCC(=O)N1CCCCC1CC (configuration not stated)
inactive: [16] 96 % of control | [17] 86 % of control

COc1ccc(N2CCN(/C=C/C(=O)c3ccc(C)cc3C)CC2)cc1
inactive: [10] 97 % of control | [11] 95 % of control | [12] 106 % of control

CNC1C(=O)C2CCC(C2)C1c1ccccc1 (configuration not stated)
inactive: [4] 108 % of control | [5] 100 % of control | [6] 96 % of control

O=C(N/N=C/c1ccc2c(c1)CCC2)c1ccccc1N=Cc1ccc2c(c1)CCC2
inactive: [13] 86 % of control | [14] 96 % of control | [15] 92 % of control

COc1c(NC(=O)c2ccc([N+](=O)[O-])cc2)cccc1[N+](=O)[O-]
inactive: [1] 89 % of control | [2] 95 % of control | [3] 89 % of control

CCCCC(CC)COP(=O)(OCC(CC)CCCC)c1ccccc1 (configuration not stated)
inactive: dose: 50.0 mg/kg/injection, schedule: Q01DX001 (ip), vehicle: saline 100 % of control | [4] 100 % of control

Cc1nc(C)c(Br)s1
inactive: dose: 25.0 mg/kg/injection, schedule: Q01DX009 (ip), vehicle: saline with Tween-80 97 % of control | [7] 96 % of control | [8] 112 % of control | [10] 105 % of control | [11] 110 % of control

NC1=NC(c2ccc(Cl)cc2)N(c2ccc(S(N)(=O)=O)cc2)C(N)=N1 (configuration not stated)
inactive: dose: 75.0 mg/kg/injection, schedule: Q01DX001 (ip), vehicle: saline 102 % of control | dose: 150.0 mg/kg/injection, schedule: Q01DX001 (ip), vehicle: saline 96 % of control

NS(=O)(=O)c1ccc(NC(=O)Nc2ccccc2F)cc1
inactive: dose: 100.0 mg/kg/injection, schedule: Q01DX001 (ip), vehicle: saline with Tween-80 102 % of control | [8] 98 % of control and 104 % of control | [16] 93 % of control and 97 % of control | dose: 200.0 mg/kg/injection, schedule: Q01DX001 (ip), vehicle: saline with Tween-80 101 % of control | [9] 93 % of control and 102 % of control | [17] 98 % of control and 105 % of control | dose: 400.0 mg/kg/injection, schedule: Q01DX001 (ip), vehicle: saline with Tween-80 90 % of control | dose: 400.0 mg/kg/injection, schedule: Q01DX009 (ip), vehicle: saline with Tween-80 98 % of control and 102 % of control | dose: 400.0 mg/kg/injection, schedule: Q04DX002 (ip), vehicle: saline with Tween-80 96 % of control and 97 % of control
